# Assay results reported in US20250163119A1, “COMPOUNDS FOR THE TREATMENT OF DIABETES OR OBESITY” (Eli Lilly and Company, priority 2023, published 2025).
# *1 amine or outer side, *2 acyl side, *3 side chain or, on linkers, in order; H or OH if unused. Where a SMILES comes first, the peptide text is derived from it. Bridges are numbered along the chain shown (N, C = ends). Roman numbers before positions name the chains, in order. Side-chain parts run from the residue outwards. [ ]: non-standard residue; d: D form. The star is where a group is joined. C20 diacid = O=C(O)CCCCCCCCCCCCCCCCCCC(=O)*; γGlu = O=C(O)[C@H](CCC(=O)[*:2])N[*:1]; εLys = N[C@@H](CCCCN[*:1])C(=O)[*:2]; pGlu = O=C1CC[C@@H](C(=O)O)N1; αMeL = CC(C)C[C@](C)(N)C(=O)O; AEEA = NCCOCCOCC(=O)O; Aib = CC(C)(N)C(=O)O; Ahx = NCCCCCC(=O)O; βAla = NCCC(=O)O
# Key:
# human CRHR2 = molecular target: T1, human CRHR2 (Homo sapiens, UniProt Q13324); assay: Human CRHR2 cAMP assay (HTRF) in HEK293 cells stably expressing human CRHR2; assay type: cell-based; details: HEK293 cells overexpressing human CRHR2; relative EC50, maximum 10 nM human UCN2; mean ± SE; read-out: hCRHR2 cAMP EC50 (pM, ± SE)
# T1 construct: expressed in transfected cells
# T1 sequence (Q13324 1-438 isoform Q13324-2): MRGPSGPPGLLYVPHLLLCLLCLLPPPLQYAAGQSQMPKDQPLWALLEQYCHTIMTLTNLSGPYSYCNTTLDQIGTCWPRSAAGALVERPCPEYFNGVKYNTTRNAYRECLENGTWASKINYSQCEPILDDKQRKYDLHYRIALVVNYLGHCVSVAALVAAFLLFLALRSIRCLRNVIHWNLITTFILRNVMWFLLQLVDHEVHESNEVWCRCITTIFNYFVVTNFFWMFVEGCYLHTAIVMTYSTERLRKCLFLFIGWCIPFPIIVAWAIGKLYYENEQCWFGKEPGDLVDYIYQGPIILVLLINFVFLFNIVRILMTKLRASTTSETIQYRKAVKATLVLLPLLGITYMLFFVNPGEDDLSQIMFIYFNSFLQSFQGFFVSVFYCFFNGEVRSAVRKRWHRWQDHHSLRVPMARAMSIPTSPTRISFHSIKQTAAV
# Description: (§1) The corticotropin-releasing hormone (CRH) receptor 1 and 2 (CRHR1 and CRHR2) are GPCRs that were functionally coupled to Gs proteins. Stimulation of these receptors results in an increased production of intracellular cAMP, which can be detected using standard in vitro technologies. In vitro activity of peptides was measured by the amount of cAMP formed in human CRHR1 and CRHR2 overexpressed cells.
# (§2) Human CRHR1 and CRHR2 receptors were stably expressed in human embryonic kidney cells (HEK293) under control of a pcDNA expression vector. The HEK293 cell line was cultured in DMEM 1× (Gibco, 93-0152DK) supplemented with 10% FBS, 1 mM sodium pyruvate, 1×MEM NEAA, 1× GlutaMAX and 10 mM HEPES. The plasmids of human CRHR1-pQCXIP (T7364) and human CRHR2b-R2683puro (T16761) DNA were transfected into HEK293 cells using Lipo fectAMINE 3000 Transfection reagent (Invitrogen, L3000001). After 20 days under selection, the mRNA levels from different clones were measured to confirm the expression of human CRHR1 and CRHR2 genes. To determine the function of over-expressed CRHR cells, the intracellular cAMP levels in response to human UCN1 and UCN2 were measured and compared to the expression of CRHR1 and CRHR2 mRNA in each clone.
# (§3) Human CRHR1 cells were cultured in DMEM 1× (Gibco, 93-0152DK) supplemented with 10% FBS, 1 mM sodium pyruvate, 1×MEM NEAA, 1×GlutaMAX, 10 mM HEPES, and 800 μg/ml G418. Human CRHR2 cells were cultured at the same media (DMEM 1×, 10% FBS, 1 mM sodium pyruvate, 1×MEM NEAA, 1×GlutaMAX, 10 mM HEPES) in the presence of 0.5 ug/mL puromycin. Cultured cells were grown to 90% confluency and harvested. The cells were frozen at 10×10e6/ml in a mixture of […] fetal bovine serum plus 7% DMSO and stored in liquid nitrogen until use.
# (§4) On the day of the assay, the frozen cells were thawed and diluted in assay buffer (Phenol Red free MEM (Corning, 17-305-CV, lot #32121010), 0.1% Casein (Sigma C4765, lot #SLCG2120), 5 mM HEPES pH 7.4 containing 0.25 mM IBMX). 10 ul of human CRHR1 cells (25,000 cells) or 10 μL of human CRHR2 cells (5,000 cells) were dispensed into each well of white poly-D-lysine coated 384-well plates (Corning cat #354661). Test compounds diluted in DMSO were added (200 nL/well) in a 1:3 dilution series using ECHO acoustic liquid handler (Beckman). The mixture of cells and test compounds were incubated at 37° C. for 1 hour for the hCRHR1 plate, while the CRHR2 plates were incubated at room temperature for 30 min.
# (§5) The amount of intracellular cAMP was quantitated using HTRF technology (Homogeneous Time Resolved Fluorescence; Cisbio) as per vendor instructions. Briefly, 10 uL CAMP-d2 conjugate and 10 uL anti-CAMP-cryptate conjugate in lysis buffer were incubated with the treated cells at room temperature for 60 min. The HTRF signal was immediately detected using an Envision plate reader (Perkin-Elmer) to calculate the ratio of fluorescence at 665 to 620 nm.
# (§6) Raw fluorescence data for concentration curves of the peptides in Table 2 and Table 3 were converted to cAMP amount (pmol/well) using a cAMP standard curve generated for each experiment.
# human CRHR1 = molecular target: T2, human CRHR1 (Homo sapiens, UniProt P34998); assay: Human CRHR1 cAMP assay (HTRF) in HEK293 cells stably expressing human CRHR1; assay type: cell-based; details: HEK293 cells overexpressing human CRHR1; relative EC50, maximum 66 nM human UCN1; mean ± SE; read-out: hCRHR1 cAMP EC50 (pM, ± SE)
# T2 construct: expressed in transfected cells
# T2 sequence (P34998 24-415): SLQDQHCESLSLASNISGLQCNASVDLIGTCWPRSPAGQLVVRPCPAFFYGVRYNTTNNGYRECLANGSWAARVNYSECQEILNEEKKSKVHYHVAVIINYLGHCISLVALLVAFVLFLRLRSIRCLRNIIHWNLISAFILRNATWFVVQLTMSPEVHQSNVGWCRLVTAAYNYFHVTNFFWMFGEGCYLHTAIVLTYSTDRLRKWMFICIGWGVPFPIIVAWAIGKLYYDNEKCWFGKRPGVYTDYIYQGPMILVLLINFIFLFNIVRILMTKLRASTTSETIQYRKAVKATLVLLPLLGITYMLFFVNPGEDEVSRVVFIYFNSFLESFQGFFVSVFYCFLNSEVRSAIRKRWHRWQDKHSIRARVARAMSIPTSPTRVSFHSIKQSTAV
# Description: as §1, §2, §3, §4, §5, §6
Compound,EC50 (human CRHR2),EC50 (human CRHR1)
"I: Ac-GSPSIVTS[αMeL]DVPT[Aib][αMeL]LQKILEQERAEKARQQAKEAAEILAQV-NH2 / II: {C20 diacid}-EPEPEP[γGlu] (amide I:33-II:C) [SEQ ID NO: 16, Ac-GSPSIVTS αMeL DVPT Aib αMeL LQKILEQERAEKARQQAK(γE-PEPEPE-CO-(CH2)18-CO2H)EAAEILAQV-NH2]",12.5 ± 1.1 pM,> 1e+07 pM
"CC[C@H](C)[C@H](NC(C)=O)C(=O)N[C@H](C(=O)N[C@H](C(=O)N[C@@H](CO)C(=O)N[C@@](C)(CC(C)C)C(=O)N[C@@H](CC(=O)O)C(=O)N[C@@H](C(=O)N1CCC[C@H]1C(=O)N[C@H](C(=O)NCC(=O)N[C@@](C)(CC(C)C)C(=O)N[C@@H](CC(C)C)C(=O)N[C@@H](CCC(N)=O)C(=O)N[C@H](C(=O)N[C@@H](CCCCN)C(=O)N[C@@H](CC(C)C)C(=O)N[C@@H](CCC(=O)O)C(=O)N[C@@H](CCC(N)=O)C(=O)N[C@@H](CCC(=O)O)C(=O)N[C@@H](CCCNC(=N)N)C(=O)N[C@@H](C)C(=O)N[C@@H](CCC(=O)O)C(=O)N[C@@H](CCCCN)C(=O)N[C@@H](C)C(=O)N[C@@H](CCCNC(=N)N)C(=O)N[C@@H](CCC(N)=O)C(=O)N[C@@H](CCC(N)=O)C(=O)N[C@@H](C)C(=O)N[C@@H](CCCCNC(=O)COCCOCCNC(=O)CC[C@H](NC(=O)CC[C@H](NC(=O)CCCCCCCCCCCCCCCCCCC(=O)O)C(=O)O)C(=O)O)C(=O)N[C@@H](CCC(=O)O)C(=O)N[C@@H](CC(N)=O)C(=O)N[C@H](C(=O)N[C@@H](CCC(=O)O)C(=O)N[C@H](C(=O)N[C@@H](CC(C)C)C(=O)N[C@@H](C)C(=O)N[C@@H](CCC(N)=O)C(=O)N[C@H](C(N)=O)C(C)C)[C@@H](C)CC)[C@@H](C)O)[C@@H](C)CC)[C@@H](C)O)C(C)C)[C@@H](C)O)C(C)C [SEQ ID NO: 44, Ac-IVTS αMeL D (D-Val) PTG αMeL LQIKLEQERAEKARQQAK((2-[2-(2-Amino-ethoxy)-ethoxy]-acetyl)-(γE)2-CO-(CH2)18-CO2H)ENTEILAQV-NH2] (Ac-IVTS[αMeL]D[dV]PTG[αMeL]LQIKLEQERAEKARQQAK([AEEA-γGlu-γGlu-C20 diacid])ENTEILAQV-NH2)",5.4 ± 0.5 pM,> 1e+07 pM
[pGlu]GSPSGIVTS[αMeL]DVPT[Aib][αMeL]LQKILEQERAEKARQQAKEAAEILAQV-NH2 [SEQ ID NO: 23],28.9 ± 1.2 pM,> 1e+07 pM
"Ac-GSPSIVTS[αMeL]DVPT[Aib][αMeL]LQKILEQERAEKARQQAK([Gly-βAla-βAla-βAla-βAla-γGlu-C20 diacid])EAAEILAQV-NH2 [SEQ ID NO: 8, Ac-GSPSIVTS αMeL DVPT Aib αMeL LQKILEQERAEKARQQAK(G-(βA)4-γE-CO-(CH2)18-CO2H)EAAEILAQV-NH2]",11 ± 0.9 pM,> 1e+07 pM
"Ac-GSPSIVTS[αMeL]DVPT[Aib][αMeL]LQKILEQERAEKARQQAK([γGlu-Pro-Lys-Glu-εLys-C20 diacid])EAAEILAQV-NH2 [SEQ ID NO: 13, Ac-GSPSIVTS αMeL DVPT Aib αMeL LQKILEQERAEKARQQAK(γE-PKE-ϵK-CO-(CH2)18-CO2H)EAAEILAQV-NH2]",7.9 ± 0.3 pM,> 1e+07 pM
"Ac-GSPSIVTS[αMeL]DVPT[Aib][αMeL]LQKILEQERAEKARQQAK([γGlu-AEEA-Ahx-C20 diacid])EAAEILAQV-NH2 [SEQ ID NO: 5, Ac-GSPSIVTS αMeL DVPT Aib αMeL LQKILEQERAEKARQQAK(γE-(2-[2-(2-Amino-ethoxy)-ethoxy]-acetyl)-Ahx-CO-(CH2)18-CO2H)EAAEILAQV-NH2]",10.7 ± 0.8 pM,> 1e+07 pM
Ac-GSPSIVTS[αMeL]DVPT[Aib][αMeL]LQKILEQERAEKARQQAKEAAEILAQV-NH2 [SEQ ID NO: 20],15.3 ± 1.4 pM,> 1e+07 pM
"Ac-GSPSIVTS[αMeL]DVPT[Aib][αMeL]LQKILEQERAEKARQQAK([γGlu-Pro-Pro-Pro-εLys-C20 diacid])EAAEILAQV-NH2 [SEQ ID NO: 14, Ac-GSPSIVTS αMeL DVPT Aib αMeL LQKILEQERAEKARQQAK(γE-PPP-EK-CO-(CH2)18-CO2H)EAAEILAQV-NH2]",8.3 ± 0.5 pM,> 1e+07 pM
"Ac-PPPIVTS[αMeL]D[dV]PT[Aib][αMeL]LQK[Aib]LEQERAEKARQQAK([γGlu-AEEA-εLys-C20 diacid])ENTEILAQV-NH2 [SEQ ID NO: 46, Ac-PPPIVTS αMeL D (D-Val) PT Aib αMeL LQK Aib LEQERAEKARQQAK(γE-(2-[2-(2-Amino-ethoxy)-ethoxy]-acetyl)-ϵK-CO-(CH2)18-CO2H)ENTEILAQV-NH2]",13 ± 1.1 pM,> 1e+07 pM
"CC[C@H](C)[C@H](NC(C)=O)C(=O)N[C@H](C(=O)N[C@H](C(=O)N[C@@H](CO)C(=O)N[C@@](C)(CC(C)C)C(=O)N[C@@H](CC(=O)O)C(=O)N[C@@H](C(=O)N1CCC[C@H]1C(=O)N[C@H](C(=O)NCC(=O)N[C@@](C)(CC(C)C)C(=O)N[C@@H](CC(C)C)C(=O)N[C@@H](CCC(N)=O)C(=O)N[C@H](C(=O)N[C@@H](CCCCN)C(=O)N[C@@H](CC(C)C)C(=O)N[C@@H](CCC(=O)O)C(=O)N[C@@H](CCC(N)=O)C(=O)N[C@@H](CCC(=O)O)C(=O)N[C@@H](CCCNC(=N)N)C(=O)N[C@@H](C)C(=O)N[C@@H](CCC(=O)O)C(=O)N[C@@H](CCCCN)C(=O)N[C@@H](C)C(=O)N[C@@H](CCCNC(=N)N)C(=O)N[C@@H](CCC(N)=O)C(=O)N[C@@H](CCC(N)=O)C(=O)N[C@@H](C)C(=O)N[C@@H](CCCCNC(=O)CC[C@H](NC(=O)CC[C@H](NC(=O)COCCOCCNC(=O)CCCCCCCCCCCCCCCCCCC(=O)O)C(=O)O)C(=O)O)C(=O)N[C@@H](CCC(=O)O)C(=O)N[C@@H](CC(N)=O)C(=O)N[C@H](C(=O)N[C@@H](CCC(=O)O)C(=O)N[C@H](C(=O)N[C@@H](CC(C)C)C(=O)N[C@@H](C)C(=O)N[C@@H](CCC(N)=O)C(=O)N[C@H](C(N)=O)C(C)C)[C@@H](C)CC)[C@@H](C)O)[C@@H](C)CC)[C@@H](C)O)C(C)C)[C@@H](C)O)C(C)C [SEQ ID NO: 31, Ac-IVTS αMeL D (D-Val) PTG αMeL LQIKLEQERAEKARQQAK((γE)2-(2-[2-(2-Amino-ethoxy)-ethoxy]-acetyl)-CO-(CH2)18-CO2H)ENTEILAQV-NH2] (Ac-IVTS[αMeL]D[dV]PTG[αMeL]LQIKLEQERAEKARQQAK([γGlu-γGlu-AEEA-C20 diacid])ENTEILAQV-NH2)",4.5 ± 0.7 pM,> 1e+07 pM
